Measured values from patent publication US20220127232A1, “HISTONE ACETYLTRANSFERASE MODULATORS AND COMPOSITIONS AND USES THEREOF” (The Trustees of Columbia University in the City of New York, priority 2019, published 2022).
Entries after “also recorded” stand apart in the source; their conditions may differ. Like-named read-outs stand apart in the source and are kept apart here.

Experiments:
p300 = p300 (Homo sapiens, UniProt Q09472); test: Histone Acetyltransferase (HAT) in vitro acetylation assay, western blot of H3K27ac / H3K18ac; type: biochemical; conditions: compound in DMSO
p300, sequence (Q09472 whole entry, species assumed): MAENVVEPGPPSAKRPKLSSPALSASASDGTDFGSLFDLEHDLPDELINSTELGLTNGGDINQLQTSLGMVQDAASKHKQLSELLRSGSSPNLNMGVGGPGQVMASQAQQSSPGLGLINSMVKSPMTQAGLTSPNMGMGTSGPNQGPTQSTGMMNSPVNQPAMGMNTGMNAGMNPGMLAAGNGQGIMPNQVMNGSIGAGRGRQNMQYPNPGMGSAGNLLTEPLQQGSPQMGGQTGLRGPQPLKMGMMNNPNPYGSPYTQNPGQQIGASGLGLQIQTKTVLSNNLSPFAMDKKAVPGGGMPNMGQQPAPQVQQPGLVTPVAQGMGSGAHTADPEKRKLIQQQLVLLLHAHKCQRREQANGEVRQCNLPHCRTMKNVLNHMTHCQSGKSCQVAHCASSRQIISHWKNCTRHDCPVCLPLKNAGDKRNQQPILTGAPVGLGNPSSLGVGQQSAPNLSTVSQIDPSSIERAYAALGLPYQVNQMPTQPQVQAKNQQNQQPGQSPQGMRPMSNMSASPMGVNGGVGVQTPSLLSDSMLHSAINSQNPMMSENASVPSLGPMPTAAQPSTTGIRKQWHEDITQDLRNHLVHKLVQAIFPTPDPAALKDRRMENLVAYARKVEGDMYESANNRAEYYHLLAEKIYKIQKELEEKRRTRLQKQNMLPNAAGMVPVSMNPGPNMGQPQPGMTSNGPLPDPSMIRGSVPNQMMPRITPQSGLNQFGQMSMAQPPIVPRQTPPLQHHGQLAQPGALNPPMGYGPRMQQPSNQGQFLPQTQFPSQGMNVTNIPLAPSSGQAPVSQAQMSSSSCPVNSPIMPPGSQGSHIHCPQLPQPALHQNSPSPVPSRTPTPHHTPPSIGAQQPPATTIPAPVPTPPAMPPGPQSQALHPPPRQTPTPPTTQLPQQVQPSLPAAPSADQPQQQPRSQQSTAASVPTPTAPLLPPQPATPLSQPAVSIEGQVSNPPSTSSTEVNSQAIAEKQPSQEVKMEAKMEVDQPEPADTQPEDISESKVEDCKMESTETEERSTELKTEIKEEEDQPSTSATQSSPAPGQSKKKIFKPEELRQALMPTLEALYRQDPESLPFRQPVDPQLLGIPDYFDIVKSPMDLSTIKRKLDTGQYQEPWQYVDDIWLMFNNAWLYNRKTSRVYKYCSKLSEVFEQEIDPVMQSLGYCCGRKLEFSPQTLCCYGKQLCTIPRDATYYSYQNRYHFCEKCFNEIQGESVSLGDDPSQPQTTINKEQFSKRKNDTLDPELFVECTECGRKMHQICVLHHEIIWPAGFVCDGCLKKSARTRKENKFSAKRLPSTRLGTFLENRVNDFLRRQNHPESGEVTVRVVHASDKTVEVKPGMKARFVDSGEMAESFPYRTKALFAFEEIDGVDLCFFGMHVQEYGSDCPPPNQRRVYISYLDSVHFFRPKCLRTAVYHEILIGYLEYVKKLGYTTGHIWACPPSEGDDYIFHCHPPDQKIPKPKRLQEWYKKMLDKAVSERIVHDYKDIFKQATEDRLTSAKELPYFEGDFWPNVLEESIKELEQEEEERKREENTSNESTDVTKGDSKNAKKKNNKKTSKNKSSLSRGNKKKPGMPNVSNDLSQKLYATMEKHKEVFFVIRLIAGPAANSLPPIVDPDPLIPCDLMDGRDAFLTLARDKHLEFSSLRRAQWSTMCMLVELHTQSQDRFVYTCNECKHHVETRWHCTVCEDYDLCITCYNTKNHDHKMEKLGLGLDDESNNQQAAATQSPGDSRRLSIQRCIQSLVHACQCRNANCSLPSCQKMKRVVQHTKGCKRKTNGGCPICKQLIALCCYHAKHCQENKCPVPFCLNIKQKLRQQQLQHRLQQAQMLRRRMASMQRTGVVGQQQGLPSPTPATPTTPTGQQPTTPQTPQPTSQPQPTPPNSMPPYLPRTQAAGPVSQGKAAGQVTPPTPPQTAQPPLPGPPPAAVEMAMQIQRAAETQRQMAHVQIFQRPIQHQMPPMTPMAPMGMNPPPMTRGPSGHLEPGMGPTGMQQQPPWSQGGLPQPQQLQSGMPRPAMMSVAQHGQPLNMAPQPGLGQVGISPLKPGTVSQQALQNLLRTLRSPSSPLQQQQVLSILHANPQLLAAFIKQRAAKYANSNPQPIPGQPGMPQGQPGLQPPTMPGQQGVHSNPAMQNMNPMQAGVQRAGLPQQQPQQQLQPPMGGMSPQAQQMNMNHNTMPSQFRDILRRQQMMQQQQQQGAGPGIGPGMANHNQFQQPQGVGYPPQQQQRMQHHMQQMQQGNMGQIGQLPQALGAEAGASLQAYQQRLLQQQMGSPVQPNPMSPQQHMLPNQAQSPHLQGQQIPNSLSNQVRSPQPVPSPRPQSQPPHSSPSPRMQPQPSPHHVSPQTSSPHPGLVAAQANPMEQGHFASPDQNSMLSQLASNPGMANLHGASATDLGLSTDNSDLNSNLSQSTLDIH
Method: The aim of the in vitro acetylation assay is to measure the enzymatic activity of the various compounds towards p300.
First, the drug is prepared:
Second, dilute p300 in AM1 buffer to a concentration of 40 ng/μL (final concentration in the reaction 20 ng/μL). This is accomplished by diluting 1 μL of p300 (at 0.4 μg/μL) into […] of AM1 buffer.
Third, prepare the Master Mix. Prepare the Master Mix in low protein binding tubes (ThermoFisher Cat. No. 90410), 20 μL system.
Incubate reactions at 30° C. for 30 minutes.
Incubate reactions at 30° C. for 1 hour.
Fourth, perform the western blot assay. • Add 6.7 μL of Laemmli Sample Buffer 4× (Bio-Rad Laboratories Cat. No. 161-0737) for each reaction and boil samples at 95° C. for 5 min. • Charge 10 μL for each sample in 2 Tris Glycine 4-15% gels (Bio-Rad Laboratories Cat. No. 456-1086). Running Buffer: Tris-Glycine 1× (pour in the cell up to the writing “2 gels”). • Run at 90 V for 1 hour (until the gel front reaches the green line of cell). • Semi-dry transfer with Trans-Blot® Turbo™ Blotting System from Bio-Rad Laboratories (Trans-Blot® Turbo™ RTA midi PVDF transfer kit Cat. No1704275). • Activate PVDF membrane in methanol for 5 minutes and then wet in Trans-Blot® Turbo™ transfer buffer. • Wet stacks in transfer buffer. • Transfer at 23 V 1.3 A for 7 minutes. • Blocking buffer: 5% Non-Fat milk in TBST (tween 0.1%) 1 hour at room temperature. • Cut the membranes to get Ac-His 3 at 17 kDa and p300 at 300 kDa. • Incubate with primary antibodies overnight at 4° C. • The day after, make 3 washes in TBST (Tween 0.1%) of 10 minutes. • Incubate with secondary antibody at room temperature for 1 hour. • Make 3 washes in TBST (Tween 0.1%) of 5 minutes. • Incubate membranes with ECL (SuperSignal West Dura Extended Duration Substrate from ThermoFisher) for 5 minutes at room temperature. • Acquire the image with ChemiDoc Odyssey Fc 2 minutes.
To detect total H3 (loading control), strip the membranes with Restore™ Western Blot Stripping Buffer according to the manufacturer protocol.
Various compounds were tested for enzymatic activity with respect to Lys 18 and Lys 27. EC50 is indicated for Activators and IC50 for inhibitors respectively.
FIGS. 1A to 25B are graphs showing the lysine residue acetylation as a function of concentration for the compounds set forth in Table 3. The shaded area corresponds to the average values of lysine residue acetylation (continuous line) and their standard error range measured in the absence of compound and DMSO. The number of replicates is represented by “n”.

[1] = Stability in human liver microsomes; type: in vitro ADME; conditions: for microsomal CLint at 1 μM / half-life at 1 μM: both sexes, human, liver microsomes, pH 7.4, human liver microsomes
Method: Some compounds were tested for stability in human liver microsomes as shown below in Table 2.
Mixed-gender human liver microsomes (Lot #1010420) were purchased from XenoTech. The reaction mixture, minus NADPH, was prepared as described below. The test article was added into the reaction mixture at a final concentration of 1 μM. The control compound, testosterone, was run simultaneously with the test article in a separate reaction. An aliquot of the reaction mixture (without cofactor) was equilibrated in a shaking water bath at 37° C. for 3 minutes. The reaction was initiated by the addition of the cofactor, and the mixture was incubated in a shaking water bath at 37° C. Aliquots (100 μL) were withdrawn at 0, 10, 20, 30, and 60 minutes. Test article and testosterone samples were immediately combined with 400 μL of ice-cold 50/50 acetonitrile (ACN)/H2O containing 0.1% formic acid and internal standard to terminate the reaction. The samples were then mixed and centrifuged to precipitate proteins. All samples were assayed by LC-MS/MS using electrospray ionization. Analytical conditions are outlined in Appendix 1. The peak area response ratio (PARR) to internal standard was compared to the PARR at time 0 to determine the percent remaining at each time point. Half-lives and clearance were calculated using GraphPad software, fitting to a single-phase exponential decay equation.
Liver Microsomes 0.5 mg/mL NADPH (cofactor) 1 mM
Potassium Phosphate, pH 7.4 100 mM
Intrinsic clearance (CLint) was calculated based on CLint=k/P, where k is the elimination constant and P is the protein concentration in the incubation.

mice [2] = test: 2 day radial arm water maze (RAWM), spatial short-term memory; type: in vivo
Method: Synaptic plasticity is thought to underlie memory formation. RA010115 was also tested in assays aimed at determining whether the compound can be beneficial to two types of memory, short-term spatial memory that can tested through the 2 day radial arm water maze, and contextual fear memory, a type of associative memory that depends upon hippocampal function and is impaired in AD patients. FIG. 27 is a graph showing that RA010115 rescues oTau- and oAβ-induced defects in the 2-day radial arm water maze test of spatial short-term memory. The performance in the RAWM was impaired in mice administered with oAβ (200 nM) oTau (500 nM). […] The performance was not impaired when mice were treated with only RA010115 or vehicle. (ANOVA for repeated measures among all groups at day 2: F(5, 65)=7.092, p<0.0001. One-way ANOVA for block 10: F(5, 65)=7.385, p<0.0001; Bonferroni's p<0.0001 for both oAβ vs. vehicle and oTau vs. vehicle; oAβ vs RA010115 plus oAβ p<0.001 and for oTau vs RA010115 plus oTau p<0.05.

mice [3] = test: Contextual fear memory; type: in vivo
Method: FIG. 28 is a graph showing that RA010115 rescues oTau- and oAβ-induced defects in contextual fear memory. There is statistical significance when comparing all groups during testing for contextual fear memory at 24 hrs after the electric shock (ANOVA among all groups: F(5, 57)=5.558 p=0.0003). […] The performance was not impaired when mice were treated with only RA010115 or vehicle.

[4] = mice treated with only compound

SMILES: COc1cccc(OC)c1C(=O)Nc1ccc(Cl)c(C(F)(F)F)c1 [RA010115]
- H3-Lys 27 EC50 (p300; EC50 for activators): NO ACTIVITY
- EC50 (p300; EC50 for activators, read-out: H3-Lys 18 EC50): 0.137 µM
- H3-Lys 27 IC50 (p300; IC50 for inhibitors): NO ACTIVITY
- microsomal CLint at 1 μM ([1]; calculated value printed in parentheses behind the bound, read-out: CLint, value in parentheses): 150 µL/min/mg
- half-life at 1 μM ([1]; fitted value printed in parentheses behind the bound, read-out: Half-life, value in parentheses): 9.25 min
- microsomal CLint at 1 μM ([1]; read-out: CLint): > 139 µL/min/mg
- half-life at 1 μM ([1]; read-out: Half-life): < 10 min
- % Remaining of Initial (n = 1) 0 min ([1]; human liver microsomes, test article 1 μM, 0 min): 100%
- % Remaining of Initial (n = 1) 10 min ([1]; human liver microsomes, test article 1 μM, 10 min): 47.7%
- % Remaining of Initial (n = 1) 20 min ([1]; human liver microsomes, test article 1 μM, 20 min): 21.1%
- % Remaining of Initial (n = 1) 30 min ([1]; human liver microsomes, test article 1 μM, 30 min): 11.4%
- % Remaining of Initial (n = 1) 60 min ([1]; human liver microsomes, test article 1 μM, 60 min): 2.59%
- oTau- and oAβ-induced defects in RAWM performance (mice [2]; mice administered oAβ (200 nM) or oTau (500 nM), compound 5 mg/kg, 5 mg/kg): rescued the deficit; also recorded: rescues
- RAWM performance, compound alone (mice [2]; [4]): not impaired
- oTau- and oAβ-induced defects in contextual fear memory (freezing) (mice [3]; 24 hrs after the electric shock): rescues
- Contextual fear memory performance, compound alone (mice [3]; [4]): not impaired
